Active and inactive are the calls of the source. The rule behind the calls is not given here.
What follows are compounds tested on cytotoxicity counter-screen, luminescence read-out (assay: cytotoxicity of HIV fusion inhibitor analogs, SAR follow-up, cytotoxicity control for HIV fusion inhibitor project, cell-based, luminescence (AID 435031)).

SMILES	CC50
O=[N+]([O-])c1cc([N+](=O)[O-])c2oc(-c3ccccc3)c(Br)c2c1O	> 100 µM (inactive)
Oc1c(Cl)cc(Cl)c(Cl)c1Cc1c(O)c(Cl)cc(Cl)c1Cl	18 µM
CC(C)(C)c1cc(-c2csc(Nc3ccccc3)[n+]2Cc2ccc(C(=O)O)cc2)cc(C(C)(C)C)c1O	13.7 µM
N#C/C(=C\c1ccc(OCc2ccc(Cl)cc2)cc1)C(=O)Nc1cccc(C(=O)O)c1	> 100 µM (inactive)
COc1cc(C=NNc2ccc(Cl)c(C(=O)O)c2)ccc1OC(=O)c1ccc(F)cc1	> 100 µM (inactive)
COc1ccc(C(=O)Oc2ccc(C=NNc3ccc(Cl)c(C(=O)O)c3)cc2OC)cc1	> 100 µM (inactive)
O=C(O)c1ccccc1C(=O)N(Cc1cccc(Oc2ccc(Cl)cc2)c1)[C@H]1CCCc2ccccc21	19 µM
Cc1ccc(S(=O)(=O)Oc2ccc(/C=C3/C(=N)N4C(=NC3=O)SN=C4S(C)(=O)=O)cc2)cc1	91 µM
CCOC(=O)C1=C(C)N=c2sc(=Cc3ccc(OCC(=O)O)cc3)c(=O)n2C1c1ccc(OC(C)C)cc1 (stereo unspecified)	32 µM
COc1cc(/C=C2\SC(=O)N(c3ccccc3Cl)C2=O)cc([N+](=O)[O-])c1O	> 100 µM (inactive)
CCC(Sc1nc2ccsc2c(=O)n1Cc1ccc(C(=O)O)cc1)C(=O)Nc1ccc(C)c(Cl)c1 (stereo unspecified)	> 100 µM (inactive)
Cc1c(Cl)cccc1NS(=O)(=O)c1ccc2c(c1)C1C=CCC1C(c1ccc(C(=O)O)cc1)N2 (stereo unspecified)	> 100 µM (inactive)
CC(C)S(=O)(=O)C1=NSC2=NC(=O)/C(=C\c3ccc(-c4cccc(C(=O)O)c4)o3)C(=N)N21	> 100 µM (inactive)
COc1ccc(OC)c(N2C(=O)/C(=C/c3ccco3)C(=O)NC2=S)c1	> 100 µM (inactive)
CC1(C)CC(=O)C2=C(C1)c1c(ccc3ccccc13)NC2c1cc([N+](=O)[O-])cc([N+](=O)[O-])c1O (stereo unspecified)	> 100 µM (inactive)
COc1ccccc1NS(=O)(=O)c1cccc(-n2c(O)c(C=Nc3ccccc3C(=O)O)c3ccccc3c2=O)c1	> 100 µM (inactive)

SMILES	CC50
O=C1NC(=S)N(c2ccc(F)cc2)C(=O)/C1=C\c1ccoc1	> 100 µM (inactive)
CCC(C)(C)C1CCc2c(sc(NC(=O)c3ccccc3C(=O)O)c2C#N)C1 (stereo unspecified)	22 µM
COC(=O)c1sc(-c2ccc(C(C)(C)C)cc2)cc1NC(=O)c1ccccc1C(=O)O	17 µM
COc1cc(C=NNc2ccc(Cl)c(C(=O)O)c2)ccc1OC(=O)c1ccccc1F	> 100 µM (inactive)
CSc1nnc(-c2ccccc2N=Cc2c(C)[nH]n(-c3ccc4ccccc4c3)c2=O)c(=O)[nH]1	> 100 µM (inactive)
O=C(N/N=C/c1c(O)n(C2CCCCC2)c(=S)[nH]c1=O)c1ccccc1O	> 100 µM (inactive)
O=C(O)c1ccccc1N=Nc1c(O)[nH]c2ccc([N+](=O)[O-])cc12	> 100 µM (inactive)
O=C(O)CCCN1C(=O)/C(=C/c2ccc(-c3nc4ccccc4s3)o2)SC1=S	> 100 µM (inactive)
CS(=O)(=O)C1=NSC2=NC(=O)/C(=C\c3ccc(OS(=O)(=O)c4ccccc4)cc3)C(=N)N21	> 100 µM (inactive)
O=C1NC(=S)N(c2ccc(F)cc2)C(=O)/C1=C/c1ccco1	> 100 µM (inactive)
COc1cc(/C=N/NS(=O)(=O)c2ccc3ccccc3c2)ccc1OCc1ccc(C(=O)O)cc1	> 100 µM (inactive)
CCOC(=O)c1sc(N2C(=O)C(O)=C(C(=O)c3ccc(C)o3)C2c2cccc([N+](=O)[O-])c2)nc1C (stereo unspecified)	> 100 µM (inactive)
O=c1c(=Cc2cc([N+](=O)[O-])cc([N+](=O)[O-])c2O)sc2nc3ccccc3n12	> 100 µM (inactive)
CS(=O)(=O)C1=NSC2=NC(=O)/C(=C\c3cccn3-c3ccc(Cl)cc3)C(=N)N21	> 100 µM (inactive)
CC(C)S(=O)(=O)C1=NSC2=NC(=O)/C(=C\c3ccc(-c4ccccc4)o3)C(=N)N21	> 100 µM (inactive)

Reference: PubChem BioAssay AID435031 (Sanford-Burnham Center for Chemical Genomics, 2010)
